Usually pIC50 stands for the negative decadic logarithm of the IC50, by convention in mol/L. High values mean a small IC50, low ones a large IC50.

Structures are written as SMILES. pIC50: −log10 of the molar value. Like-named read-outs stand apart in the source and are kept apart here.

The target in this assay is human TPH1 (Homo sapiens (Human), UniProt P17752). The assay is described as follows: Biochemical in vitro assay using fluorescence readout (TPH1 inhibition).
[1] abbreviates: human TPH1, fluorescence readout.
The mark [2] stands for this setting: full length human TPH1, 40 μM L-tryptophan, 15° C., 60 minutes, fluorescence at 540 nm, mean if determined several times.

Sequence of human TPH1 (P17752 whole entry): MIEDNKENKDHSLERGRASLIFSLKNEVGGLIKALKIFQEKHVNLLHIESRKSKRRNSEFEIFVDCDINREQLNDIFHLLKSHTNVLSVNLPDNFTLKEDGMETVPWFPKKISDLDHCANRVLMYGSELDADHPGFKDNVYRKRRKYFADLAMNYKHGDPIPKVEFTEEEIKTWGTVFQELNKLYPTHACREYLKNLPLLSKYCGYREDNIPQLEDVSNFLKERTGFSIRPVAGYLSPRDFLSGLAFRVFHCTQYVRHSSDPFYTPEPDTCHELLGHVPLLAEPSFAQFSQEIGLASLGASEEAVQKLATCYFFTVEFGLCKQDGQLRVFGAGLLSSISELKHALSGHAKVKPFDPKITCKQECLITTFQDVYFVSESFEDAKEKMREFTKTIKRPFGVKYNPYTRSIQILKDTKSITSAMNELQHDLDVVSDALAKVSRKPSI

Take `Cc1nn2c3c(nc2s1)CCN(C(=O)COc1cccnc1C)C3c1ccc(C2CC2)cc1F` (stereo not shown) [Example 1.6.6, 1-(5-(4-cyclopropyl-2-fluorophenyl)-2-methyl-7,8-dihydro-[1,3,4]thiadiazolo[2′,3′:2,3]imidazo[4,5-c]pyridin-6(5H)-yl)-2-((2-methylpyridin-3-yl)oxy)ethanone]: the pIC50 under setting [1] is 7.60. The same measure, in the same setting: with `Cc1cnc([C@H]2c3c(nc4sc(C)nn34)CCN2C(=O)COc2ccc(N3CCCS3(=O)=O)nc2Cl)c(F)c1` [Example 1.31.17, (R)-2-((2-chloro-6-(1,1-dioxidoisothiazolidin-2-yl)pyridin-3-yl)oxy)-1-(5-(3-fluoro-5-methylpyridin-2-yl)-2-methyl-7,8-dihydro-[1,3,4]thiadiazolo[2′,3′:2,3]imidazo[4,5-c]pyridin-6(5H)-yl)ethanone] the figure was 8.10. Under setting [2], `CNC(=O)c1csc(C2c3c(nc4sc(C)nn34)CCN2C(=O)COc2ccc(N3CCOCC3)nc2Cl)n1` (stereo not shown) [Example 1.44.2, 2-(6-(2-((2-Chloro-6-morpholinopyridin-3-yl)oxy)acetyl)-2-methyl-5,6,7,8-tetrahydro-[1,3,4]thiadiazolo[2′,3′:2,3]imidazo[4,5-c]pyridin-5-yl)-N-methylthiazole-4-carboxamide] gave a pIC50 of 8.30. Compound `O=C(COc1ccc(Cl)cc1Cl)N1CCc2nc3sccn3c2C1c1cc2cccnc2s1` (stereo not shown) [Example 6.14.1, 2-(2,4-dichlorophenoxy)-1-(5-(thieno[2,3-b]pyridin-2-yl)-7,8-dihydrothiazolo[2′,3′:2,3]imidazo[4,5-c]pyridin-6(5H)-yl)ethanone] gave a pIC50 under setting [1] of 7.60.

Take `Cc1cnc(C2c3c(nc4sc(C)nn34)CCN2C(=O)COc2ccc(C#N)cc2Cl)c(F)c1` (stereo not shown) [Example 1.31.4, 3-chloro-4-(2-(5-(3-fluoro-5-methylpyridin-2-yl)-2-methyl-7,8-dihydro-[1,3,4]thiadiazolo[2′,3′:2,3]imidazo[4,5-c]pyridin-6(5H)-yl)-2-oxoethoxy)benzonitrile]: the pIC50 under setting [1] is 7.31. This pIC50 lies 0.29 log units lower than the previous one. Still for that read-out and setting: with `CNC(=O)c1ccc(OCC(=O)N2CCc3nc4sc(C)nn4c3C2c2ccc(Cl)cc2F)c(Cl)n1` (stereo not shown) [Example 1.4.21, 6-chloro-5-(2-(5-(4-chloro-2-fluorophenyl)-2-methyl-7,8-dihydro-[1,3,4]thiadiazolo[2′,3′:2,3]imidazo[4,5-c]pyridin-6(5H)-yl)-2-oxoethoxy)-N-methylpicolinamide] the figure was 8.30; with `Cc1nn2c3c(nc2s1)CCN(C(=O)COc1ccc(NS(C)(=O)=O)nc1Cl)C3c1cc(F)c(C)cc1F` (stereo not shown) [Example 1.74.2, N-(6-chloro-5-(2-(5-(2,5-difluoro-4-methylphenyl)-2-methyl-7,8-dihydro-[1,3,4]thiadiazolo[2′,3′:2,3]imidazo[4,5-c]pyridin-6(5H)-yl)-2-oxoethoxy)pyridin-2-yl)methanesulfonamide], 7.74. Under setting [2], `CCNc1nn(C)c(C2c3c(nc4sc(C)nn34)CCN2C(=O)COc2ccc(N3CCOCC3)nc2Cl)c1C` (stereo not shown) [Example 1.51.1, 2-((2-Chloro-6-morpholinopyridin-3-yl)oxy)-1-(5-(3-(ethylamino)-1,4-dimethyl-1H-pyrazol-5-yl)-2-methyl-7,8-dihydro-[1,3,4]thiadiazolo[2′,3′:2,3]imidazo[4,5-c]pyridin-6(5H)-yl)ethanone] gave a pIC50 of 7.24. Under setting [1], `CCc1nc(C)ccc1OCC(=O)N1CCc2nc3sc(C)nn3c2C1c1cnc(OC(F)F)cc1C` (stereo not shown) [Example 1.15.3, 1-(5-(6-(difluoromethoxy)-4-methylpyridin-3-yl)-2-methyl-7,8-dihydro-[1,3,4]thiadiazolo[2′,3′:2,3]imidazo[4,5c]pyridin-6(5H)-yl)-2-((2-ethyl-6-methylpyridin-3-yl)oxy)ethanone] showed a pIC50 of 6.81.

Compound `Cc1ccc(C2c3c(nc4sccn34)CCN2C(=O)COc2ccc(Cl)cc2C)c(F)c1` (stereo not shown) [Example 6.10.1, 2-(4-chloro-2-methylphenoxy)-1-(5-(2-fluoro-4-methyl-phenyl)-7,8-dihydrothiazolo[2′,3′:2,3]imidazo[4,5-c]-pyridin-6(5H)-yl)ethanone] showed a pIC50 under setting [1] of 8.30. Still for that read-out and setting: with `Cc1nn2c3c(nc2s1)CCN(C(=O)COc1ccc(CN2CCOCC2)nc1Cl)C3c1ccc(Cl)cc1F` (stereo not shown) [Example 1.4.1, 1-(5-(4-chloro-2-fluorophenyl)-2-methyl-7,8-dihydro-[1,3,4]thiadiazolo[2′,3′:2,3]imidazo[4,5-c]pyridin-6(5H)-yl)-2-((2-chloro-6-(morpholinomethyl)pyridin-3-yl)oxy)ethanone] the figure was 8.05. Same read-out and setting: for `O=C(COc1ccc(CN2CCOCC2)nc1Cl)N1CCc2nc3sccn3c2C1c1cc2cccnc2s1` (stereo not shown) [Example 6.14.4, 2-((2-chloro-6-(morpholinomethyl)pyridin-3-yl)oxy)-1-(5-(thieno[2,3-b]pyridin-2-yl)-7,8-dihydrothiazolo-[2′,3′:2,3]imidazo[4,5-c]pyridin-6(5H)-yl)ethanone] the value was 7.42. `Cc1nn2c3c(nc2s1)CCN(C(=O)COc1ccc(C(F)(F)F)nc1Cl)C3c1ccc(C2CC2)cc1F` (stereo not shown) [Example 1.6.24, 2-((2-chloro-6-(trifluoromethyl)pyridin-3-yl)oxy)-1-(5-(4-cyclopropyl-2-fluorophenyl)-2-methyl-7,8-dihydro-[1,3,4]thiadiazolo[2′,3′:2,3]imidazo[4,5-c]pyridin-6(5H)-yl)ethanone] had a pIC50 under setting [1] of 8.15. In the case of `Cc1nn2c3c(nc2s1)CCN(C(=O)COc1ccc(NS(C)(=O)=O)nc1Cl)C3c1ncccc1F` (stereo not shown) [Example 1.35.4, N-(6-chloro-5-(2-(5-(3-fluoropyridin-2-yl)-2-methyl-7,8-dihydro-[1,3,4]thiadiazolo[2′,3′:2,3]imidazo[4,5-c]pyridine-6(5H)-yl)-2-oxoethoxy)pyridin-2-l)methanesulfonamide], the pIC50 is 7.46. For the compound `CN(C)C(=O)c1ccc(OCC(=O)N2CCc3nc4sccn4c3C2c2sccc2F)c(Cl)n1` (stereo not shown) [Example 6.8.2, 6-chloro-5-(2-(5-(3-fluorothiophen-2-yl)-7,8-dihydro-thiazolo[2′,3′:2,3]imidazo[4,5-c]pyridin-6(5H)-yl)-2-oxoethoxy)-N,N-dimethylpicolinamide], the negative logarithm of the IC50 (pIC50) under setting [1] was 8.30.

As to `CCc1ncccc1OCC(=O)N1CCc2nc3sc(C)nn3c2C1c1ccc(Cl)cc1F` (stereo not shown) [Example 1.4.5, 1-(5-(4-chloro-2-fluorophenyl)-2-methyl-7,8-dihydro-[1,3,4]thiadiazolo[2′,3′:2,3]imidazo[4,5-c]pyridin-6(5H)-yl)-2-((2-ethylpyridin-3-yl)oxy)ethanone], the negative-log IC50 (pIC50) under setting [1] is 7.89. As to `CCc1nc(C)ccc1OCC(=O)N1CCc2nc3sc(C)nn3c2C1c1cnc(C2CC2)nc1C` (stereo not shown) [Example 1.10.3, 1-(5-(2-cyclopropyl-4-methylpyrimidin-5-yl)-2-methyl-7,8-dihydro-[1,3,4]thiadiazolo[2′,3′:2,3]imidazo[4,5-c]pyridin-6(5H)-yl)-2-((2-ethyl-6-methylpyridin-3-yl)oxy)ethanone], under setting [1], the pIC50 was 7.42. This pIC50 lies 0.47 log units lower than the previous one. On the same count and under the same terms, for `Cc1nn2c3c(nc2s1)CCN(C(=O)COc1ccc(C(=O)N(C)C)nc1Cl)C3c1ncc(Cl)cc1F` (stereo not shown) [Example 1.33.3, 6-chloro-5-(2-(5-(5-chloro-3-fluoropyridin-2-yl)-2-methyl-7,8-dihydro-[1,3,4]thiadiazolo[2′,3′:2,3]imidazo[4,5-c]pyridin-6(5H)-yl)-2-oxoethoxy)-N,N-dimethylpicolinamide] the value was 8.22. Still for that read-out and setting: for `CCc1nc(NS(C)(=O)=O)ccc1OCC(=O)N1CCc2nc3sc(C(F)F)nn3c2C1c1ccc(Cl)cc1F` (stereo not shown) [Example 8.1.2, N-(5-(2-(5-(4-chloro-2-fluorophenyl)-2-(difluoromethyl)-7,8-dihydro-[1,3,4]thiadiazolo[2′,3′:2,3]imidazo[4,5-c]pyridin-6(5H)-yl)-2-oxoethoxy)-6-ethylpyridin-2-yl)methanesulfonamide] the value was 8.00; for `CCc1ncccc1OCC(=O)N1CCc2nc3sc(C)nn3c2C1c1cnc(N2CCOCC2)s1` (stereo not shown) [Example 1.7.1, 2-((2-ethylpyridin-3-yl)oxy)-1-(2-methyl-5-(2-morpholinothiazol-5-yl)-7,8-dihydro-[1,3,4]thiadiazolo[2′,3′:2,3]imidazo[4,5-c]pyridin-6(5H)-yl)ethanone], 6.47; for `Cc1nn2c3c(nc2s1)CCN(C(=O)COc1ccc(C#N)cc1Cl)C3c1sc(C(=O)N(C)C)cc1F` (stereo not shown) [Example 1.24.8, 5-(6-(2-(2-chloro-4-cyanophenoxy)acetyl)-2-methyl-5,6,7,8-tetrahydro-[1,3,4]thiadiazolo[2′,3′:2,3]imidazo[4,5-c]pyridin-5-yl)-4-fluoro-N,N-dimethylthiophene-2-carboxamide], 7.85. As to `Cc1nn2c3c(nc2s1)CCN(C(=O)COc1ccc(Cl)cc1C)C3c1cc(CN(C)C)cs1` (stereo not shown) [Example 1.8.3, 2-(4-chloro-2-methylphenoxy)-1-(5-(4-((dimethylamino)methyl)thiophen-2-yl)-2-methyl-7,8-dihydro-[1,3,4]thiadiazolo [2′,3′:2,3]imidazo[4,5-c]pyridin-6(5H)-yl)ethanone], under setting [1], the pIC50 is 7.02. The same measure, in the same setting: for `CCOC(=O)c1ncc(C2c3c(nc4sc(C)nn34)CCN2C(=O)COc2ccc(C#N)cc2Cl)s1` (stereo not shown) [Example 1.30.3, Ethyl 5-(6-(2-(2-chloro-4-cyanophenoxy)acetyl)-2-methyl-5,6,7,8-tetrahydro-[1,3,4]thiadiazolo[2′,3′:2,3]imidazo[4,5-c]pyridin-5-yl)thiazole-2-carboxylate] the value was 6.43; for `Cc1nn2c3c(nc2s1)CCN(C(=O)COc1ccc(C(=O)NC2CC2)nc1Cl)C3c1ccc(C(C)(C)O)cc1F` (stereo not shown) [Example 1.80.2, 6-chloro-N-cyclopropyl-5-(2-(5-(2-fluoro-4-(2-hydroxypropan-2-yl)phenyl)-2-methyl-7,8-dihydro-[1,3,4]thiadiazolo[2′,3′:2,3]imidazo[4,5-c]pyridin-6(5H)-yl)-2-oxoethoxy)picolinamide], 7.19.

`CNC(=O)c1ccc(OCC(=O)N2CCc3nc4sc(C)nn4c3C2c2cc(C(=O)N(C)C)cs2)c(Cl)n1` (stereo not shown) [Example 1.9.6, 6-Chloro-5-(2-(5-(4-(dimethylcarbamoyl)thiophen-2-yl)-2-methyl-7,8-dihydro-[1,3,4]-thiadiazolo[2′,3′:2,3]imidazo[4,5-c]pyridin-6(5H)-yl)-2-oxoethoxy)-N-methyl-picolinamide] gave a pIC50 under setting [2] of 7.00.

The values are drawn from patent US9765092B2, “Tricyclic piperidine compounds” (ACTELION PHARMACEUTICALS LTD, priority 2013, dated 2017).
